The text below walks through data of ChEMBL document CHEMBL1201862, “PubChem BioAssay data set” (2004).

A word on the EC50: it is the concentration that produces a half-maximal response. A word on the AC50: it is the concentration giving half of the maximal activity seen.

Molecules are shown by their SMILES. The source made the active and inactive calls.

A short description of assay [1]: Counterscreen for […] of the human trace amine associated receptor 1 (TAAR1): Fluorescence-based cell-based high throughput dose response assay to identify nonselective Ga16 agonists. Type of assay: functional. Background: The purpose of a counterscreen is to sort out artefacts and off-target activity.
The target in assay [2] is T1, Trace amine-associated receptor 1 (Homo sapiens, UniProt Q96RJ0).
T1 sequence (Q96RJ0 whole entry): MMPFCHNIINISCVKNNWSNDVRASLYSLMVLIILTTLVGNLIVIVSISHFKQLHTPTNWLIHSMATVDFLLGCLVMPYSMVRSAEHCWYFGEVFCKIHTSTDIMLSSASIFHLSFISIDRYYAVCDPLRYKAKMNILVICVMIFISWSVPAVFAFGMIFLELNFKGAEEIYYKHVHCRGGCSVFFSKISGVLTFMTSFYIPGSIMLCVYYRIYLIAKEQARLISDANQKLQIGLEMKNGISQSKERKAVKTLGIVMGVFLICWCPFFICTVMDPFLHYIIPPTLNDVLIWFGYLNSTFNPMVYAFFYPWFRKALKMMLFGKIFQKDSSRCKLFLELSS
The assay can be described thus: Fluorescence-based cell-based high throughput dose response assay to identify antagonists of the human trace amine associated receptor 1 (TAAR1). Type of assay: functional.

Assay [3] is described as follows: Counterscreen for antagonists of the human trace amine associated receptor 1 (hTAAR1): Fluorescence-based cell-based high throughput dose response assay to identify nonselective Ga16 antagonists. Type of assay: functional.
In assay [4] the target is T1, Trace amine-associated receptor 1. Briefly: Counterscreen for antagonists of the human trace amine associated receptor 1 (hTAAR1): Fluorescence-based cell-based high throughput dose response assay to identify TAAR1 Agonists. Type of assay: functional.
For assay [5], the target named is T2, Small ubiquitin-related modifier 1 (Homo sapiens, UniProt P63165). Briefly: inhibitors of SUMO1 peptide binding, dose response, biochemical, fluorescence polarization, uHTS hits (AID 624382). Format: functional. The note with it: read-out: IC50_Mean.
T2 sequence (P63165 whole entry): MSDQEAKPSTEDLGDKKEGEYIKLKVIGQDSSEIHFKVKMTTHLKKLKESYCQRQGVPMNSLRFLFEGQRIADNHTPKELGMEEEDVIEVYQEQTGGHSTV
The target in assay [6] is T2, Small ubiquitin-related modifier 1. Briefly: inhibitors of SUMO1 partner interactions, dose response, biochemical, FRET (AID 624383). Type of assay: functional. The note with it: read-out: IC50_Mean.
Assay [7] in a line: cytotoxicity in HepG2 cells, dose response, cytotoxicity control, cell-based, cherry-picked samples (AID 1053183). Format: functional.
Assay [8] is described as follows: cytotoxicity in HEK293 cells, dose response, cytotoxicity control, cell-based, cherry-picked samples (AID 1053185). Format: functional.
Assay [9] concerns the target Luciferin 4-monooxygenase (Photinus pyralis, UniProt P08659). The assay can be described thus: Counter Screen for Luciferase-based Assay Positives. [Related pubchem assays: 620, 618, 411 ].
A short description of assay [10]: growth suppression of PTEN-null colon cells, dose response, cell-based, HCT116 PTEN knockout (AID 1047).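 Note: HCT116 colon tumor cells with PTEN knocked out; cells exposed to compound for 60 hours before readout; potency for loss of cell viability measured by luminescence.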 Format: functional.
Another assay relates to HT-1080. The assay can be described thus: cytotoxicity in HT1080 fibrosarcoma cells, cell-based, fluorescence readout (AID 620). Type of assay: functional. The note with it: Homo sapiens.
Assay [11] in a line: growth suppression of beta-catenin-knockout colon cells, dose response, cell-based, HCT116, human colon tumor (AID 1045).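 Note: HCT116 colon tumor cells with beta catenin knocked out; cells exposed to compound for 60 hours.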 Format: functional.
In assay [12] the target is Oxysterols receptor LXR-beta (Homo sapiens, UniProt P55055). Type of assay: functional, cell-based.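 Note: agonist activity at LXR measured by a cell-based luminescence readout across a dose range, run as a counterscreen for daf-12 agonists; HEK293 cells with Gal4-LXR fusion and GAL4-driven luciferase reporter; potency for activation of Gal4-LXR reporter so compounds are agonists.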
Oxysterols receptor LXR-beta, sequence (P55055 whole entry, the tested form may be a part): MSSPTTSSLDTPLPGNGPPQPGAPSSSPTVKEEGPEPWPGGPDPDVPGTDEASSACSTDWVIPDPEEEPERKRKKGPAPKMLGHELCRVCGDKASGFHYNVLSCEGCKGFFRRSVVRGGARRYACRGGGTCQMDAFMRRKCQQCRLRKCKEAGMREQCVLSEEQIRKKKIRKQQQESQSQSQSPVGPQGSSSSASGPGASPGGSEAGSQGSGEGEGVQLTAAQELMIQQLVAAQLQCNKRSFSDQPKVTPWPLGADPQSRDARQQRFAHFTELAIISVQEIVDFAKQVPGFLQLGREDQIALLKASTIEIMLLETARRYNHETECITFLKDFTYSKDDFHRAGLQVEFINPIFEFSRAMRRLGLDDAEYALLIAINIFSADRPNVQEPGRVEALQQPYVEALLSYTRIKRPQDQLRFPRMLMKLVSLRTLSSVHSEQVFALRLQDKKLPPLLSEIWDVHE
In another assay the target is NS3 (Hepatitis C virus, UniProt A3EZJ3). The assay can be described thus: HCV NS3 helicase inhibitor potency, dose response, biochemical, fluorescence polarization, ChemBridge library (AID 743264). On the technique in general: In fluorescence polarisation assays a small probe gives low polarisation when free and higher when bound to something large.
NS3, sequence (A3EZJ3 whole entry): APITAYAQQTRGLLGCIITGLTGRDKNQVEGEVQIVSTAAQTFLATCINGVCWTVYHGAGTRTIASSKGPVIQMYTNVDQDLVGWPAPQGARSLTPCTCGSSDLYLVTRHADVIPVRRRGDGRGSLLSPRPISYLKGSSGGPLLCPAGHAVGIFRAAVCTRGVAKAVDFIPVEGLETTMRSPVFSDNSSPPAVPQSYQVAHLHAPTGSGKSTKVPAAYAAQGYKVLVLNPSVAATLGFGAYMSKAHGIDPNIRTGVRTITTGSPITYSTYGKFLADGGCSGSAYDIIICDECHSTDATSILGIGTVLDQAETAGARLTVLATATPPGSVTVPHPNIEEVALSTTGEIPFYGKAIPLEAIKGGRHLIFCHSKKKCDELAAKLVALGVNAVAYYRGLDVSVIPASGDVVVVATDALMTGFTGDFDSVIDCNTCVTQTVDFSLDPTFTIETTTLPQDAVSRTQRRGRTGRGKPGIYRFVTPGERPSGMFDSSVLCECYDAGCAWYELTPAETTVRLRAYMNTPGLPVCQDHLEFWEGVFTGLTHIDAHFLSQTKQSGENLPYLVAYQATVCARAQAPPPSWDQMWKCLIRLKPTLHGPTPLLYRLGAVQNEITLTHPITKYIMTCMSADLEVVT
In assay [13] the target is Broad substrate specificity ATP-binding cassette transporter ABCG2 (Homo sapiens, UniProt Q9UNQ0). Briefly: ABCG2 efflux pump inhibitors, dose response, Ig-MXP3 cells, flow cytometry (AID 1690). Format: functional. Background: Flow cytometry measures light scatter and fluorescence of single cells or particles in a stream.
Broad substrate specificity ATP-binding cassette transporter ABCG2, sequence (Q9UNQ0 whole entry): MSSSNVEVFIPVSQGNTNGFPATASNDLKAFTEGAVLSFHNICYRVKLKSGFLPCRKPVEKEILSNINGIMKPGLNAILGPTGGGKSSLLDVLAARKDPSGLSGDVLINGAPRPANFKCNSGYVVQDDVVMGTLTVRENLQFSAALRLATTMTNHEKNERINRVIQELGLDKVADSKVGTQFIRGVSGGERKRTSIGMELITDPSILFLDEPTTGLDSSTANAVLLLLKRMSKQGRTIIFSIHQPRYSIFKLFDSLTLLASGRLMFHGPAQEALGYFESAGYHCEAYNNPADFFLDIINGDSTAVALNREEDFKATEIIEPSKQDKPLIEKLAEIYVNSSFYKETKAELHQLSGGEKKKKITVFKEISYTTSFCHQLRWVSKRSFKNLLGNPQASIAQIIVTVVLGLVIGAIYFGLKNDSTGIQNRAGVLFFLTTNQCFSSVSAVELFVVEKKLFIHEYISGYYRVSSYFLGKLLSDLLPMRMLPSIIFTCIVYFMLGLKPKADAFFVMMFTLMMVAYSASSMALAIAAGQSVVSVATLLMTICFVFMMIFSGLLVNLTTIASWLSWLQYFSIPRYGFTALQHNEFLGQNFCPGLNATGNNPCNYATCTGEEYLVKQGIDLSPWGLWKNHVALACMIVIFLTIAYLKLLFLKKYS
The nature of assay [14]: HepG2 cell cytotoxicity, dose response, cytotoxicity control, ATP luminescence, cherry-pick, activator set 2 (AID 1053143). Type of assay: functional, cell-based.
A short description of assay [15]: HEK293T cell cytotoxicity, dose response, cytotoxicity control for HIV Vif inhibitor project, cherry-picks (AID 652208). Type of assay: functional, cell-based.
Assay [16] in a line: intracellular Trypanosoma cruzi inhibitors in host cells – cell-based, plate reader, cherry-pick samples, set 3, dose response (AID 651818).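 Note: compounds incubated with infected cells for about four days.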 Type of assay: functional.
Assay [17] in a line: T. cruzi growth inhibition in host cells, dose response, cell-based, plate reader, dry powder, set 2 (AID 652275). Format: functional.
A short description of assay [18]: T. cruzi intracellular amastigote growth inhibition, dose response, imaging, CA-I/72 strain, bovine embryo skeletal muscle, dry powder (AID 651885). Type of assay: functional, cell-based.
Assay [19] has as its target Potassium channel subfamily K member 3 (Homo sapiens, UniProt O14649). The assay can be described thus: TASK1 (KCNK3) potassium channel inhibitors, SAR follow-up, CHO cells, FluxOR thallium flux (AID 652212). Type of assay: functional.
For assay [20], the target named is ADP-ribosylation factor GTPase-activating protein 1 (Rattus norvegicus, UniProt Q62848). Briefly: Fluorescence polarization-based biochemical high throughput dose response screening assay to identify inhibitors of ADP-ribosylation factor GTPase activating protein 1 (ARFGAP1). Type of assay: functional.
ADP-ribosylation factor GTPase-activating protein 1, sequence (Q62848 whole entry, the tested form may be a part): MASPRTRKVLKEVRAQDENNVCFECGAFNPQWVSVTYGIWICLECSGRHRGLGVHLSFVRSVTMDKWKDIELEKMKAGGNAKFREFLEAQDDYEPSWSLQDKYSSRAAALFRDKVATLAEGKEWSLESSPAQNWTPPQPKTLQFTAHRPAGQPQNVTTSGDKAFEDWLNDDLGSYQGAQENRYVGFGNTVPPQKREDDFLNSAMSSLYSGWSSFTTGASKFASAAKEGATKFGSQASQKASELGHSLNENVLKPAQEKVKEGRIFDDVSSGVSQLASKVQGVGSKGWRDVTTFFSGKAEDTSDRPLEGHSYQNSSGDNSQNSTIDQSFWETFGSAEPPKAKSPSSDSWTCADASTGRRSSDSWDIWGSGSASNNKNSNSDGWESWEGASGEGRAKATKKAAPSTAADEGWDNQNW
Assay [21] deals with Arf-GAP with SH3 domain, ANK repeat and PH domain-containing protein 1 (Homo sapiens, UniProt Q9ULH1). Type of assay: functional.
Arf-GAP with SH3 domain, ANK repeat and PH domain-containing protein 1, sequence (Q9ULH1 whole entry, the tested form may be a part): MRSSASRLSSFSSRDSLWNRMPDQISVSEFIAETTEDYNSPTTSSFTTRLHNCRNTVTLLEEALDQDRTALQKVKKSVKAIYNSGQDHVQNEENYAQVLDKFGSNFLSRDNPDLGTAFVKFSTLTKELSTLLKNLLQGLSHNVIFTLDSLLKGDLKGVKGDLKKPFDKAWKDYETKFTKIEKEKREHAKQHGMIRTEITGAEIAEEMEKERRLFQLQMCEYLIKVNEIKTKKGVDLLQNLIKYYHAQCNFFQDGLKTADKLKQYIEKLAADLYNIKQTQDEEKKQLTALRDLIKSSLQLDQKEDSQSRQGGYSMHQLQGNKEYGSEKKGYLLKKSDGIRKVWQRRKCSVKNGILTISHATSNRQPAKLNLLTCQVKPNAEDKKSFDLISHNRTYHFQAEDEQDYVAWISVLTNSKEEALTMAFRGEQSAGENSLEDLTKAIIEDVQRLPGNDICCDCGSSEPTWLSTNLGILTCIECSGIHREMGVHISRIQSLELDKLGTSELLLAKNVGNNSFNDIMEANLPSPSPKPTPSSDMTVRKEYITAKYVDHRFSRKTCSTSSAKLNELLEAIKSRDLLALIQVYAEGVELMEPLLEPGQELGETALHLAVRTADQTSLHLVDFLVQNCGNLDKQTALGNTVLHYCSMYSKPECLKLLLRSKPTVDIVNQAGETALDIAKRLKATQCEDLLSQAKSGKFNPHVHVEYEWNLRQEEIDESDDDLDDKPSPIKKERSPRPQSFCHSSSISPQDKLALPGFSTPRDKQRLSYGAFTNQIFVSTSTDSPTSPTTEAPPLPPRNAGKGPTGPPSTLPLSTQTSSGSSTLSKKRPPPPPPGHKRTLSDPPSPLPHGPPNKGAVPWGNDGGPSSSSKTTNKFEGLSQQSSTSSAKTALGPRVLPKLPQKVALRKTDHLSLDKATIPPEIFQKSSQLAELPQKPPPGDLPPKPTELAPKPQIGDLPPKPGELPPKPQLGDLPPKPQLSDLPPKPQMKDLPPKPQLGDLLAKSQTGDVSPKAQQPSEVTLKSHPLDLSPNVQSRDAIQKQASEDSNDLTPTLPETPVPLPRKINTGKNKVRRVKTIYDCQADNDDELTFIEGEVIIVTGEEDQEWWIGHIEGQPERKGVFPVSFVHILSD

Potassium channel subfamily K member 3, sequence (O14649 whole entry): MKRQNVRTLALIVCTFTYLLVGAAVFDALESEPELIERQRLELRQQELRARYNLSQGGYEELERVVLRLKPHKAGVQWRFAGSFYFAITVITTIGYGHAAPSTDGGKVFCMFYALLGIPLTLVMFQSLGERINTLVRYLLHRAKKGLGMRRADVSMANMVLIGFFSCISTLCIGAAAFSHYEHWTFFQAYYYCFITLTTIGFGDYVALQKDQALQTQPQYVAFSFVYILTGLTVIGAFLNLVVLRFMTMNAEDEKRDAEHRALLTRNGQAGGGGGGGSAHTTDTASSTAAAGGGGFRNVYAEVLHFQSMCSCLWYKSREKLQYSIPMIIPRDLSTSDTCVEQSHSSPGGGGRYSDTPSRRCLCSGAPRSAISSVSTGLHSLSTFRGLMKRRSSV
Luciferin 4-monooxygenase, sequence (P08659 whole entry): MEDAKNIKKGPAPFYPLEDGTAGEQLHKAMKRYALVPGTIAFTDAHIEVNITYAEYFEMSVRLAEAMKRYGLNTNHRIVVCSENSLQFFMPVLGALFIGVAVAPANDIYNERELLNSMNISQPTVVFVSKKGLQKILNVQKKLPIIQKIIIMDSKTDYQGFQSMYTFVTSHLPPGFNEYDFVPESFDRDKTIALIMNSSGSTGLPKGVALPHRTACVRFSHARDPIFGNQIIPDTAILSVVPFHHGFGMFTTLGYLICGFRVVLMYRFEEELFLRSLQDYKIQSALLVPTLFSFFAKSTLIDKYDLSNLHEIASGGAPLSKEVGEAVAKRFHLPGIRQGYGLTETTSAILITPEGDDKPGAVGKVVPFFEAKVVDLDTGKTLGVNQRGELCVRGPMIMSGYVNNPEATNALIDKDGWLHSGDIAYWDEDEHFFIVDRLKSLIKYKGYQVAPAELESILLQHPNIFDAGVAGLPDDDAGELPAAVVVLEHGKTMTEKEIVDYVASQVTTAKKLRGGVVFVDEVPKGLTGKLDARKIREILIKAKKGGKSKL

With `COC(=O)Cc1nnn2c1[C@H](C)[C@H](c1ccccc1Br)OCC2`, the EC50 in assay [1] and in assay [4] was > 29.9 µM (inactive) each time. The IC50 in assay [2] was 1.28 µM (active); in [3], > 29.9 µM (inactive).
As to `O=C(NCc1ccccn1)c1ccc2c(=O)n3nc(Nc4ccccc4)sc3nc2c1`, the IC50 in assay [5] was > 66.6 µM (inactive); in [6], 8.94 µM (active).
Take `N#Cc1cccc(-c2ccc([C@H]3[C@@H]4CN(C(=O)Nc5ccc(C(F)(F)F)cc5)C[C@H]3N4)cc2)c1`: the AC50 in assay [7] is 36.1 µM (active); in assay [8], > 52 µM (inactive).
Turning to `Clc1cccc(-c2nnc(-c3ccccc3)o2)c1`, the EC50 in assay [9] is 50.7 µM (active); in assay [10] it was 49 µM (active); in the assay on HT-1080, > 50 µM (not active); in [11] it was 26.3 µM (active); in assay [12] it was > 67.5 µM (inactive).
Regarding `Cc1ccc(C)n1-c1cc(C(=O)O)ccc1O`, the IC50 on NS3 is 50.4 µM (active).
Regarding `COC(=O)c1ccc(C(C(=O)NC2CCCCC2)N(Cc2ccccc2)C(=O)Cc2cccs2)cc1` (stereo not drawn), the EC50 in [13] is 4.6 µM (active).
For `c1csc(-c2ccc(N3CCOCC3)nn2)c1`, in assay [14], the AC50 was 26 µM (active).
On to `NC(c1csc(Nc2ccc(C(=O)c3ccccc3)cc2)n1)C1CCCCC1` (stereo not drawn), for which, in [15], the AC50 is 26.6 µM (active).
For `COc1ccc(CN(C)C[C@@H]2Oc3c(NC(=O)c4ccncc4)cccc3C(=O)N([C@@H](C)CO)C[C@H]2C)cc1`, the AC50 in [16] was 0.388 µM (active); in [17], 0.0382 µM (active). In [18], the IC50 was 0.18 µM (active).
Regarding `Cc1cccc(C(=O)Nc2ccccc2C(=O)Nc2ccccc2)c1`, in assay [19], the IC50 is 5.59 µM (active).
`CN(Cc1ccccc1F)C(=O)CN1c2cccc3cccc(c23)S1(=O)=O`: the figures for the IC50 in assay [20] and in assay [21] were 47.1 µM (inactive) and 41 µM (inactive), respectively.
